The text below walks through data of patent US10660877B2 (BRISTOL-MYERS SQUIBB COMPANY, priority 2016, dated 2020).

pIC50: −log10 of the molar value. Read-outs that look alike come from different tables or passages of the source. Some results are limits rather than exact numbers.

One experiment deals with human TLR7 (Homo sapiens (Human), UniProt Q9NYK1). Put plainly: TLR7 inhibition reporter assay (HEK-Blue cells, SEAP reporter, gardiquimod stimulation). The class given is cell-based.
The target of a further experiment is human TLR8 (Homo sapiens (Human), UniProt Q9NR97). Put plainly: TLR8 inhibition reporter assay (HEK-Blue cells, SEAP reporter, R848 stimulation).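 Note: compounds tested from 0.05 nM to 50 µM, 22 h at 37 °C, SEAP measured with HEK-Blue Detection, inhibition relative to agonist plus DMSO versus a known inhibitor.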
human TLR8, sequence (Q9NR97 27-1041): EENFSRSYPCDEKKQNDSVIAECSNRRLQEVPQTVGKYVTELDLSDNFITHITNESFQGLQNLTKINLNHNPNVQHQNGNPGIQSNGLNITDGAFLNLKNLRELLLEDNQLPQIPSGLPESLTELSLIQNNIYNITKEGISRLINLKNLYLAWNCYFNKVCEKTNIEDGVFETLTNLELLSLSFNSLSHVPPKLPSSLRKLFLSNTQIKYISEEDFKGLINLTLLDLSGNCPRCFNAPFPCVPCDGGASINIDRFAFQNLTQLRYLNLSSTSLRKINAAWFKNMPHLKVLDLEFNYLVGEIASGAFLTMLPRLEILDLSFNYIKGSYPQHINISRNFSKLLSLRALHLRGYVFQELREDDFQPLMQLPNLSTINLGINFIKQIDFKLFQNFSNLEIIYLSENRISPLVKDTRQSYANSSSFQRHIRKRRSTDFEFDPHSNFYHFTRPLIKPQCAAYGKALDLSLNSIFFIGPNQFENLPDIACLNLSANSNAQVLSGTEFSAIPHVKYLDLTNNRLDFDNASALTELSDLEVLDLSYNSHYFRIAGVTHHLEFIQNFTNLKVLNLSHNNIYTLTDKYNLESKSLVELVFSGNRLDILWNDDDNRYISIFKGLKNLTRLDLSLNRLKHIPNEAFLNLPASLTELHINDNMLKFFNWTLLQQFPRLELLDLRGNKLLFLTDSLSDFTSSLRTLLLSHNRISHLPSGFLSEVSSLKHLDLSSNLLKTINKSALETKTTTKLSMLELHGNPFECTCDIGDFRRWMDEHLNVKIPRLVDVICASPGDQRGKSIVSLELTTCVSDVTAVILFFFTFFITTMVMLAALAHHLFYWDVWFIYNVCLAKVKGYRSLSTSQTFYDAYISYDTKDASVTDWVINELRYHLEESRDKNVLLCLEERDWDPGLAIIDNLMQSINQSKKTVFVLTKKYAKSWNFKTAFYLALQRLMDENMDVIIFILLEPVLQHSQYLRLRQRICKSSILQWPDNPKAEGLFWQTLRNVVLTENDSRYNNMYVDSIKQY
For another experiment, the target named is human TLR9 (Homo sapiens (Human), UniProt Q9NR96). Put plainly: TLR9 inhibition reporter assay (HEK-Blue cells, SEAP reporter, ODN2006 stimulation).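 Note: compounds tested over 0.05 nM to 50 µM, 22 h incubation, inhibition taken as SEAP signal drop from agonist plus DMSO wells toward a known inhibitor control.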
human TLR9, sequence (Q9NR96 26-1032): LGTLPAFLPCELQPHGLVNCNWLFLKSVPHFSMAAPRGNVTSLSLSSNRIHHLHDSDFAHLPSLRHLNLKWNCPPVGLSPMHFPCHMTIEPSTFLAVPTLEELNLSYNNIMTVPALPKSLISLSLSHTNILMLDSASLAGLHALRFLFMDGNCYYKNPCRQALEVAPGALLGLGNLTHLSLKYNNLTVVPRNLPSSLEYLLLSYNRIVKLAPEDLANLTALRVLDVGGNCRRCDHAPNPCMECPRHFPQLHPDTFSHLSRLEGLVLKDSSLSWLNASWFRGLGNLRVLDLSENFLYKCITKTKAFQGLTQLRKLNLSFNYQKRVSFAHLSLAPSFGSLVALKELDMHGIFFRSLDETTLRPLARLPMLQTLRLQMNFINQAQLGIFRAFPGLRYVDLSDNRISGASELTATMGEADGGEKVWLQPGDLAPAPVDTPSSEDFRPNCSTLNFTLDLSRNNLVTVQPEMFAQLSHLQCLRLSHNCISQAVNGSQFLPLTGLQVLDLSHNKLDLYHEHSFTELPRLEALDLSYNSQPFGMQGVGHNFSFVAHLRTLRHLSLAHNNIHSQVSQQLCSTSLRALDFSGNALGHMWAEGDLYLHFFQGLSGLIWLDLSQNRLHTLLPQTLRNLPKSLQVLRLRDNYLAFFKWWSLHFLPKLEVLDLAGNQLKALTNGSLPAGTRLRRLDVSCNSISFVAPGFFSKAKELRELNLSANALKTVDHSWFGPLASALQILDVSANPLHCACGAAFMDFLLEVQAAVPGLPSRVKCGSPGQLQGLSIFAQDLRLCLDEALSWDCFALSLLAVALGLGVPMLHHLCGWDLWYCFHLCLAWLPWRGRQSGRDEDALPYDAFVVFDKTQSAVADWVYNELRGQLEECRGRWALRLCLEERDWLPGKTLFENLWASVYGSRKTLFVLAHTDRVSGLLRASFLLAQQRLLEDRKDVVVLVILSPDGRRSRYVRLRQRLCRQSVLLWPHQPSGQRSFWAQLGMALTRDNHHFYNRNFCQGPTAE
The mark [1] stands for this setting: HEK-Blue cells overexpressing human TLR7, gardiquimod 7.5 μM.
Where [2] appears, read: read-out: TLR8 IC50, HEK-Blue cells overexpressing human TLR8, R848 15.9 μM.
Where [3] appears, read: read-out: TLR9 IC50, HEK-Blue cells overexpressing human TLR9, ODN2006 5 nM.

human TLR7, sequence (Q9NYK1 27-1049): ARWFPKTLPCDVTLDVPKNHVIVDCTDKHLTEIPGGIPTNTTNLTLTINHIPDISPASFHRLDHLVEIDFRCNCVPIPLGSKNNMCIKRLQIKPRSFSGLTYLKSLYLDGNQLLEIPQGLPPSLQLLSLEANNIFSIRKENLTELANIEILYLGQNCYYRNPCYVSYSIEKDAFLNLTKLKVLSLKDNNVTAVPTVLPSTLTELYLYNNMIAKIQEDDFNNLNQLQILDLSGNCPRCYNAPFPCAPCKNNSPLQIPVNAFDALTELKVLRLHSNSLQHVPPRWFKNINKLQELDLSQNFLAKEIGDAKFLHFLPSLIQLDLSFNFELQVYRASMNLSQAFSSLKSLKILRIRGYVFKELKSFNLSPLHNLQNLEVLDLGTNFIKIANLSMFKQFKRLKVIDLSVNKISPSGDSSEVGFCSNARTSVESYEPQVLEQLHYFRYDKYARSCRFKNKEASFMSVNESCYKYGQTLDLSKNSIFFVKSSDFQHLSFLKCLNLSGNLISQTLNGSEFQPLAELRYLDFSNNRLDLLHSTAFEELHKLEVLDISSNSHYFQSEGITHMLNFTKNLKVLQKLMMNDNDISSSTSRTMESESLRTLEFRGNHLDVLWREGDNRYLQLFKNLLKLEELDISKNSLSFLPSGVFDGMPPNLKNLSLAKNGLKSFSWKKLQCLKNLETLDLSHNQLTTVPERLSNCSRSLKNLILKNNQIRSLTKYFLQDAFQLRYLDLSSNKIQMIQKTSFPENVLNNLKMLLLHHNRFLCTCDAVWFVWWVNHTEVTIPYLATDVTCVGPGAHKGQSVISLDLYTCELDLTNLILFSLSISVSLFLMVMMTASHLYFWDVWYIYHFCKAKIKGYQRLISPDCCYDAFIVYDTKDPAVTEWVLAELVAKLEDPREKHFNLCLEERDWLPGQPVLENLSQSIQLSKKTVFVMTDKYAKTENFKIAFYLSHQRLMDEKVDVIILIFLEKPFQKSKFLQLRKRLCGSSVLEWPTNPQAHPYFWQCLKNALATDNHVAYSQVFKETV

For `Cc1cc(-c2[nH]c3ccc(C4CCN(CC(=O)N(C)C)CC4)cc3c2C(C)C)c(F)cn1` [Example 643, 2-(4-(2-(5-fluoro-2-methylpyridin-4-yl)-3-isopropyl-1H-indol-5-yl)piperidin-1-yl)-N,N-dimethylacetamide], the figures for the pIC50 against human TLR7 (setting [1]), on human TLR8 (setting [2]) and on human TLR9 (setting [3]) were 8.35, 8.33 and 5.36, respectively.
As for `CCc1c(-c2ccnc(OC)c2)[nH]c2ccc(C3CCN(C4CCN(C(C)C)CC4)CC3)cc12` [Example 786, 3-ethyl-5-(1′-isopropyl-[1,4′-bipiperidin]-4-yl)-2-(2-methoxypyridin-4-yl)-1H-indole], the pIC50 against human TLR7 (setting [1]) was 6.51; at human TLR8 (setting [2]) it was 7.30; on human TLR9 (setting [3]), 6.69.
Regarding `Cc1cc(-c2[nH]c3ccc(C4CCN(C(=O)C5(N)CC5)CC4)cc3c2C(C)C)cc(C)n1` [Example 195, (1-aminocyclopropyl)(4-(2-(2,6-dimethylpyridin-4-yl)-3-isopropyl-1H-indol-5-yl)piperidin-1-yl)methanone], the negative-log IC50 (pIC50) was 8.22 against human TLR7 (setting [1]), 7.27 at human TLR8 (setting [2]) and 5.28 on human TLR9 (setting [3]).
In the case of `Cc1cc(-c2[nH]c3ccc(C4CCN(C(=O)CCNc5ncccn5)CC4)cc3c2C(C)C)cc(C)n1` [Example 146, 1-(4-(2-(2,6-dimethylpyridin-4-yl)-3-isopropyl-1H-indol-5-yl)piperidin-1-yl)-3-(pyrimidin-2-ylamino) propan-1-one], the results for the pIC50 at human TLR7 (setting [1]), at human TLR8 (setting [2]) and on human TLR9 (setting [3]) were 8.13, 7.07 and 4.33, respectively.
As to `Cc1cc(-c2[nH]c3ccc(C4CCN(C(=O)CN5CCOC[C@@H]5CO)CC4)cc3c2C(C)C)cc(C)n1` [Example 405, (S)-1-(4-(2-(2,6-dimethylpyridin-4-yl)-3-isopropyl-1H-indol-5-yl)piperidin-1-yl)-2-(3-(hydroxymethyl)morpholino)ethan-1-one], the results for the pIC50 on human TLR7 (setting [1]), at human TLR8 (setting [2]) and on human TLR9 (setting [3]) were 8.68, 7.89 and 6.28, respectively.
Taken in the same sequence, the figures for `Cc1cc(-c2[nH]c3ccc(C4CCN(C5CCCNC5)CC4)cc3c2C(C)C)ccn1` (stereo not drawn) [Example 703, 5-([1,3′-bipiperidin]-4-yl)-3-isopropyl-2-(2-methylpyridin-4-yl)-1H-indole] were 8.06, 8.74 and 6.28.
Taken in the same sequence, the figures for `CC(C)c1c(-c2ccnc(C#N)c2C(F)(F)F)[nH]c2ccc(C3CCNCC3)cc12` [Example 33, 4-(3-isopropyl-5-(piperidin-4-yl)-1H-indol-2-yl)-3-(trifluoromethyl)picolinonitrile] were 5.68, 6.64 and 5.25.
The corresponding values for `CCc1c(-c2ccnc(N)c2)[nH]c2ccc([C@@H]3CCNC[C@H]3F)cc12` [491-B] are 6.28, 7.46 and 6.49.
In the case of `Cc1cc(-c2[nH]c3cc(F)c(C4CCNCC4)cc3c2C(C)C)c(F)cn1` [Example 79, 6-fluoro-2-(5-fluoro-2-methylpyridin-4-yl)-3-isopropyl-5-(piperidin-4-yl)-1H-indole], the pIC50 at human TLR7 (setting [1]) is 8.82; on human TLR8 (setting [2]), 8.70; at human TLR9 (setting [3]), 5.87.
Consider `CNC(=O)C(=O)N1CCC(c2ccc3[nH]c(-c4ccnc(C)c4)c(C(C)C)c3c2)CC1` [Example 879, 2-(4-(3-isopropyl-2-(2-methylpyridin-4-yl)-1H-indol-5-yl)piperidin-1-yl)-N-methyl-2-oxoacetamide], for which the pIC50 on human TLR7 (HEK-Blue cells, gardiquimod 7.5 μM) is 7.43; at human TLR8 (read-out: TLR8 IC50, HEK-Blue cells, R848 15.9 μM), 6.77; on human TLR9 (read-out: TLR9 IC50, HEK-Blue cells, ODN2006 5 nM), less than 4.30.
As to `Cc1cc(-c2[nH]c3ccc(C4CCN(C(=O)C5CC(=O)N(C)C5)CC4)cc3c2C(C)C)cc(C2CC2)n1` (stereo not drawn) [Example 507, 4-(4-(2-(2-cyclopropyl-6-methylpyridin-4-yl)-3-isopropyl-1H-indol-5-yl)piperidine-1-carbonyl)-1-methylpyrrolidin-2-one], the pIC50 at human TLR7 (setting [1]) was 7.28; at human TLR8 (setting [2]), 6.46; on human TLR9 (setting [3]), 4.72.
The corresponding values for `Cc1cc(-c2[nH]c3ccc(C4CCN(C(=O)CN5CCCC(C)C5)CC4)cc3c2C(C)C)cc(C)n1` (stereo not drawn) [Example 378, 1-(4-(2-(2,6-dimethylpyridin-4-yl)-3-isopropyl-1H-indol-5-yl)piperidin-1-yl)-2-(3-methylpiperidin-1-yl)ethan-1-one] are 8.77, 7.93 and 6.41.
As for `CC(C)c1c(-c2cc(C3CC3)ncc2F)[nH]c2ccc(C3CCN(CC(=O)N(C)C)CC3)cc12` [Example 515, 2-(4-(2-(2-cyclopropyl-5-fluoropyridin-4-yl)-3-isopropyl-1H-indol-5-yl)piperidin-1-yl)-N,N-dimethylacetamide], the pIC50 on human TLR7 (setting [1]) was 7.70; at human TLR8 (setting [2]), 6.87; on human TLR9 (setting [3]) it was 5.65.
`Cc1cc(-c2[nH]c3ccc(C4CCN(C(=O)CN(C)C)CC4)cc3c2CC(F)F)cc(C)n1` [Example 533, 1-(4-(3-(2,2-difluoroethyl)-2-(2,6-dimethylpyridin-4-yl)-1H-indol-5-yl)piperidin-1-yl)-2-(dimethylamino)ethan-1-one]: the results for the pIC50 on human TLR7 (setting [1]), on human TLR8 (setting [2]) and at human TLR9 (setting [3]) were 7.11, 6.55 and 5.83, respectively.
Regarding `Cc1cc(-c2[nH]c3ccc(C4CCN(CC(=O)NC(C)(C)C)CC4)cc3c2C(C)C)cc(C)n1` [Example 217, N-(tert-butyl)-2-(4-(2-(2,6-dimethylpyridin-4-yl)-3-isopropyl-1H-indol-5-yl)piperidin-1-yl)acetamide], the values for the pIC50 against human TLR7 (setting [1]), on human TLR8 (setting [2]) and at human TLR9 (setting [3]) were 8.21, 7.59 and 5.99, respectively.
Taken in the same sequence, the figures for `Cc1cc(-c2[nH]c3ccc(C4CCN(CC(N)=O)CC4)cc3c2C(C)C)c(C)cn1` [Example 651, 2-(4-(2-(2,5-dimethylpyridin-4-yl)-3-isopropyl-1H-indol-5-yl)piperidin-1-yl)acetamide] were 8.28, 8.68 and 5.43.
The corresponding values for `CCc1c(-c2ccnc(N)c2)[nH]c2ccc(C3CCNCC3)cc12` [Example 69, 4-(3-ethyl-5-(piperidin-4-yl)-1H-indol-2-yl) pyridin-2-amine] are 6.56, 6.74 and 6.94.
`Cc1cc(-c2[nH]c3ccc(C4CCN(C(=O)[C@H]5C[C@H]6CC[C@@H](C5)N6)CC4)cc3c2C(C)C)ccn1` [Example 580, ((1R,3r,5S)-8-azabicyclo[3.2.1]octan-3-yl)(4-(3-isopropyl-2-(2-methylpyridin-4-yl)-1H-indol-5-yl)piperidin-1-yl)methanone]: the pIC50 against human TLR7 (setting [1]) was 7.17; on human TLR8 (setting [2]) it was 7.27; on human TLR9 (setting [3]), 6.29.
As to `Cc1cc(-c2[nH]c3ccc(C4CCN(C(=O)[C@@H]5C[C@H](F)CN5)CC4)cc3c2C(C)C)cc(C)n1` [Example 196, (4-(2-(2,6-dimethylpyridin-4-yl)-3-isopropyl-1H-indol-5-yl)piperidin-1-yl)((2S,4S)-4-fluoropyrrolidin-2-yl)methanone], the pIC50 against human TLR7 (setting [1]) is 8.92; on human TLR8 (setting [2]), 7.79; at human TLR9 (setting [3]), 6.71.
For `CC(C)c1c(-c2ccnc(Cl)c2F)[nH]c2ccc(C3CCNCC3)cc12` [Example 21, 2-(2-chloro-3-fluoropyridin-4-yl)-3-isopropyl-5-(piperidin-4-yl)-1H-indole], the figures for the negative logarithm of the IC50 (pIC50) against human TLR7 (setting [1]), on human TLR8 (setting [2]) and at human TLR9 (setting [3]) were 8.82, 8.40 and 5.53, respectively.
As to `Cc1cc(-c2[nH]c3ccc(C4CCN(C(=O)C5(C(N)=O)CC5)CC4)cc3c2C(C)C)cc(C)n1` [Example 133, 1-(4-(2-(2,6-dimethylpyridin-4-yl)-3-isopropyl-1H-indol-5-yl)piperidine-1-carbonyl)cyclopropane-1-carboxamide], the pIC50 on human TLR7 (setting [1]) was 7.91; on human TLR8 (setting [2]), 7.21; at human TLR9 (setting [3]), less than 4.30.
Turning to `CNC(C)(C)C(=O)N1CCC(c2ccc3[nH]c(-c4cc(C)nc(C)c4)c(C(C)C)c3c2)CC1` [Example 187, 1-(4-(2-(2,6-dimethylpyridin-4-yl)-3-isopropyl-1H-indol-5-yl)piperidin-1-yl)-2-methyl-2-(methylamino)propan-1-one], the pIC50 was 8.77 at human TLR7 (setting [1]), 7.98 at human TLR8 (setting [2]) and 6.01 on human TLR9 (setting [3]).
Taken in the same sequence, the figures for `CCc1c(-c2ccnc(NC(C)=O)c2)[nH]c2ccc(C3CCN(C4CCN(CC(C)C)CC4)CC3)cc12` [Example 766, N-(4-(3-ethyl-5-(1′-isobutyl-[1,4′-bipiperidin]-4-yl)-1H-indol-2-yl)pyridin-2-yl)acetamide] were 5.40, 6.61 and 7.08.
As to `CCC(=O)N1CCC(c2ccc3[nH]c(-c4ccnc(C)c4)c(C(C)C)c3c2)CC1` [Example 603, 1-(4-(3-isopropyl-2-(2-methylpyridin-4-yl)-1H-indol-5-yl)piperidin-1-yl)propan-1-one], the figures for the pIC50 against human TLR7 (setting [1]), at human TLR8 (setting [2]) and at human TLR9 (setting [3]) were 7.31, 6.64 and 4.43, respectively.
With `CCc1c(-c2ccnc(OCCN(C)C)c2)[nH]c2ccc(C3CCN(C4CCN(CC(C)C)CC4)CC3)cc12` [Example 770, 2-((4-(3-ethyl-5-(1′-isobutyl-[1,4′-bipiperidin]-4-yl)-1H-indol-2-yl)pyridin-2-yl)oxy)-N,N-dimethylethan-1-amine], the results for the pIC50 on human TLR7 (setting [1]), on human TLR8 (setting [2]) and at human TLR9 (setting [3]) were 5.17, less than 4.30 and 6.51, respectively.
The corresponding values for `CNCCN1CCC(c2ccc3[nH]c(-c4ccnc(N5CCN(C)CC5)c4)c(C)c3c2)CC1` [Example 746, N-methyl-2-(4-(3-methyl-2-(2-(4-methylpiperazin-1-yl)pyridin-4-yl)-1H-indol-5-yl)piperidin-1-yl)ethan-1-amine] are 5.39, less than 4.30 and 7.16.
